In US20250002507A1, “7,8-DIHYDRO-5H-1,6-NAPHTHYRIDINE DERIVATIVES AS POSITIVE ALLOSTERIC MODULATORS OF THE MUSCARINIC ACETYLCHOLINE RECEPTOR M4 FOR TREATING NEUROLOGICAL AND PSYCHIATRIC DISORDERS” (Vanderbilt University, priority 2021, published 2025):
Read-outs that look alike come from different tables or passages of the source.

Biological target: T1, Human M4 (Homo sapiens, UniProt P08173)
T1 construct: expressed in transfected cells
T1 sequence (P08173 1-479): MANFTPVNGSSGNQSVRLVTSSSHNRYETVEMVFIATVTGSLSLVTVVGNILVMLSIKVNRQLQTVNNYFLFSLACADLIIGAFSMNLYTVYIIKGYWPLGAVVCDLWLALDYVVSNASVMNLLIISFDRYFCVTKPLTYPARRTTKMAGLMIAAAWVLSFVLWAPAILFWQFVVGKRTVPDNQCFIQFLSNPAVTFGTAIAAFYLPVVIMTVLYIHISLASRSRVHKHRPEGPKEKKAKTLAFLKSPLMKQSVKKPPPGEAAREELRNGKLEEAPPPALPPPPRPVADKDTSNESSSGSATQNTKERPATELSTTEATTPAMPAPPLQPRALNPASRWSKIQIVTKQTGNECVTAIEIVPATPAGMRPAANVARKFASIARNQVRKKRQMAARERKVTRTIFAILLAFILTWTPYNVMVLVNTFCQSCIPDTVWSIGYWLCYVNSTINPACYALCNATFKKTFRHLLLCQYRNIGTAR
Assay: mAChR M4 cell-based functional assay (calcium flux, potentiation of EC20 acetylcholine response), hM4-Gqi5 CHO-K1 cells
Settings: for Emax at 30 µM: CHO-K1, Human M4, % ACh maximum at 30 μM, read-out: Emax (% ACh maximum at 30 μM); for EC50: potentiation of EC20 acetylcholine response, calcium flux, CHO-K1 cells, read-out: Human M4 EC50
Procedure, shortened: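 CHO-K1 cells stably expressing human M4 with chimeric Gqi5, loaded with Fluo-4 AM 50 min at 37 °C; calcium flux read by FDSS. 11-point 1:3 compound curves added, then EC20 acetylcholine at 144 s; potentiation of the EC20 response fitted by four-parameter logistic to give EC50 and Emax.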

Row | SMILES | Emax at 30 µM (Table 3) [%] | EC50 (Table 3) [nM] | Emax at 30 µM (Table 4) [%] | EC50 (Table 4) [nM]
1 | Cc1c(N2CCc3ncc(Oc4ccc(F)cc4F)cc3C2)nn2c(C(F)(F)F)nnc2c1C [Compound 299, 3-(2,4-difluorophenoxy)-6-(7,8-dimethyl-3-(trifluoromethyl)-[1,2,4]triazolo[4,3-b]pyridazin-6-yl)-5,6,7,8-tetrahydro-1,6-naphthyridine] | 111 | 216 | – | –
2 | Cc1c(N2CCc3ncc(Oc4cccc(F)c4F)cc3C2)nn2c(C(F)(F)F)nnc2c1C [Compound 300, 3-(2,3-difluorophenoxy)-6-(7,8-dimethyl-3-(trifluoromethyl)-[1,2,4]triazolo[4,3-b]pyridazin-6-yl)-5,6,7,8-tetrahydro-1,6-naphthyridine] | 87 | 969 | – | –
3 | Cc1c(N2CCc3ncc(Oc4cc(F)ccc4F)cc3C2)nn2c(C(F)(F)F)nnc2c1C [Compound 301, 3-(2,5-difluorophenoxy)-6-(7,8-dimethyl-3-(trifluoromethyl)-[1,2,4]triazolo[4,3-b]pyridazin-6-yl)-5,6,7,8-tetrahydro-1,6-naphthyridine] | 85 | 820 | – | –
4 | Cc1c(N2CCc3ncc(Oc4ccc(F)cc4F)cc3C2)nn2cnnc2c1C [Compound 302, 3-(2,4-difluorophenoxy)-6-(7,8-dimethyl-[1,2,4]triazolo[4,3-b]pyridazin-6-yl)-5,6,7,8-tetrahydro-1,6-naphthyridine] | 93 | 177 | – | –
5 | Cc1c(N2CCc3ncc(Oc4cc(F)ccc4F)cc3C2)nn2cnnc2c1C [Compound 303, 3-(2,5-difluorophenoxy)-6-(7,8-dimethyl-[1,2,4]triazolo[4,3-b]pyridazin-6-yl)-5,6,7,8-tetrahydro-1,6-naphthyridine] | 96 | 86 | – | –
6 | Cc1c(N2Cc3cc(C(F)(F)F)cnc3CC2C)nn2cnnc2c1C (centres unmarked) [Compound 307, 6-(7,8-Dimethyl-[1,2,4]triazolo[4,3-b]pyridazin-6-yl)-7-methyl-3-(trifluoromethyl)-5,6,7,8-tetrahydro-1,6-naphthyridine] | – | – | 96 | 299
7 | Cc1c(N2CCc3ncc(Cc4ccccc4F)cc3C2)nn2cnnc2c1C [Compound 308, 6-(7,8-dimethyl-[1,2,4]triazolo[4,3-b]pyridazin-6-yl)-3-(2-fluorobenzyl)-5,6,7,8-tetrahydro-1,6-naphthyridine] | – | – | 91 | 110
8 | Cc1ccc(Oc2cnc3c(c2)CN(c2nn4cnnc4cc2C)CC3)c(F)c1 [Compound 310, 3-(2-fluoro-4-methylphenoxy)-6-(7-methyl-[1,2,4]triazolo[4,3-b]pyridazin-6-yl)-5,6,7,8-tetrahydro-1,6-naphthyridine] | – | – | 81 | 182
9 | Cc1c(N2CCc3ncc(Cc4cccc(F)c4)cc3C2)nn2cnnc2c1C [Compound 311, 6-(7,8-dimethyl-[1,2,4]triazolo[4,3-b]pyridazin-6-yl)-3-(3-fluorobenzyl)-5,6,7,8-tetrahydro-1,6-naphthyridine] | – | – | 81 | 246
10 | Cc1c(N2CCc3ncc(Cc4cccc(F)c4)cc3C2)nn2c(C(F)(F)F)nnc2c1C [Compound 312, 6-(7,8-dimethyl-3-(trifluoromethyl)-[1,2,4]triazolo[4,3-b]pyridazin-6-yl)-3-(3-fluorobenzyl)-5,6,7,8-tetrahydro-1,6-naphthyridine] | – | – | 60 | 1800
11 | Cc1c(N2CCc3ncc(N4CCO[C@H](C)C4)cc3C2)nn2c(C(F)(F)F)nnc2c1C [Compound 313, (R)-4-(6-(7,8-dimethyl-3-(trifluoromethyl)-[1,2,4]triazolo[4,3-b]pyridazin-6-yl)-5,6,7,8-tetrahydro-1,6-naphthyridin-3-yl)-2-methylmorpholine] | – | – | 82 | 296
12 | Cc1c(N2CCc3ncc(N4CCOC[C@H]4C)cc3C2)nn2c(C(F)(F)F)nnc2c1C [Compound 314, (R)-4-(6-(7,8-dimethyl-3-(trifluoromethyl)-[1,2,4]triazolo[4,3-b]pyridazin-6-yl)-5,6,7,8-tetrahydro-1,6-naphthyridin-3-yl)-3-methylmorpholine] | – | – | 98 | 321
13 | Cc1c(N2CCc3ncc(N4CC5CC4CO5)cc3C2)nn2c(C(F)(F)F)nnc2c1C (centres unmarked) [Compound 316, 5-(6-(7,8-dimethyl-3-(trifluoromethyl)-[1,2,4]triazolo[4,3-b]pyridazin-6-yl)-5,6,7,8-tetrahydro-1,6-naphthyridin-3-yl)-2-oxa-5-azabicyclo[2.2.1]heptane] | – | – | 78 | 573
14 | COC1CCN(c2cnc3c(c2)CN(c2nn4c(C(F)(F)F)nnc4c(C)c2C)CC3)CC1 [Compound 317, 6-(7,8-dimethyl-3-(trifluoromethyl)-[1,2,4]triazolo[4,3-b]pyridazin-6-yl)-3-(4-methoxypiperidin-1-yl)-5,6,7,8-tetrahydro-1,6-naphthyridine] | – | – | 84 | 1400
15 | Cc1cc2nnc(C(F)(F)F)n2nc1N1CCc2ncc(C(F)(F)F)cc2C1 [Compound 319, 6-(7-methyl-3-(trifluoromethyl)-[1,2,4]triazolo[4,3-b]pyridazin-6-yl)-3-(trifluoromethyl)-5,6,7,8-tetrahydro-1,6-naphthyridine] | – | – | 96 | 794
16 | Cc1c(N2CCc3ncc(C(F)(F)F)cc3C2)nn2c(C(F)(F)F)nnc2c1C [Compound 321, 6-(7,8-dimethyl-3-(trifluoromethyl)-[1,2,4]triazolo[4,3-b]pyridazin-6-yl)-3-(trifluoromethyl)-5,6,7,8-tetrahydro-1,6-naphthyridine] | – | – | 72 | 270
17 | Cc1c(N2CCc3ncc(N4CCO[C@@H](c5ccccc5)C4)cc3C2)nn2c(C(F)(F)F)nnc2c1C [Compound 323, (S)-4-(6-(7,8-dimethyl-3-(trifluoromethyl)-[1,2,4]triazolo[4,3-b]pyridazin-6-yl)-5,6,7,8-tetrahydro-1,6-naphthyridin-3-yl)-2-phenylmorpholine] | – | – | 46 | 8910

Results, then the compound that gave them:

Row | Emax at 30 µM (Table 3) [%] | EC50 (Table 3) [nM] | Emax at 30 µM (Table 4) [%] | EC50 (Table 4) [nM] | SMILES
18 | – | – | 93 | 348 | Cc1c(N2CCc3ncc(Oc4cccc(F)c4F)cc3C2)nn2cnnc2c1C [Compound 304, 3-(2,3-difluorophenoxy)-6-(7,8-dimethyl-[1,2,4]triazolo[4,3-b]pyridazin-6-yl)-5,6,7,8-tetrahydro-1,6-naphthyridine]
19 | – | – | 112 | 1870 | Cc1c(N2CCc3ncc(OCC(F)(F)F)cc3C2)nn2cnnc2c1C [Compound 305, 6-(7,8-dimethyl-[1,2,4]triazolo[4,3-b]pyridazin-6-yl)-3-(2,2,2-trifluoroethoxy)-5,6,7,8-tetrahydro-1,6-naphthyridine]
20 | – | – | 102 | 143 | Cc1c(N2CCc3ncc(N4CC(C)Cn5nccc54)cc3C2)nn2c(C(F)(F)F)nnc2c1C (centres unmarked) [Compound 306, 6-(7,8-dimethyl-3-(trifluoromethyl)-[1,2,4]triazolo[4,3-b]pyridazin-6-yl)-3-(6-methyl-6,7-dihydropyrazolo[1,5-a]pyrimidin-4(5H)-yl)-5,6,7,8-tetrahydro-1,6-naphthyridine]
21 | – | – | 83 | 1410 | Cc1c(N2CCc3ncc(Cc4ccccc4F)cc3C2)nn2c(C(F)(F)F)nnc2c1C [Compound 309, 6-(7,8-dimethyl-3-(trifluoromethyl)-[1,2,4]triazolo[4,3-b]pyridazin-6-yl)-3-(2-fluorobenzyl)-5,6,7,8-tetrahydro-1,6-naphthyridine]
22 | – | – | 85 | 1900 | Cc1c(N2CCc3ncc(N4CCOC[C@@H]4C)cc3C2)nn2c(C(F)(F)F)nnc2c1C [Compound 315, (S)-4-(6-(7,8-dimethyl-3-(trifluoromethyl)-[1,2,4]triazolo[4,3-b]pyridazin-6-yl)-5,6,7,8-tetrahydro-1,6-naphthyridin-3-yl)-3-methylmorpholine]
23 | – | – | 80 | 2150 | Cc1c(N2CCc3ncc(N4C[C@@H](C)O[C@@H](C)C4)cc3C2)nn2c(C(F)(F)F)nnc2c1C [Compound 318, (2R,6S)-4-(6-(7,8-dimethyl-3-(trifluoromethyl)-[1,2,4]triazolo[4,3-b]pyridazin-6-yl)-5,6,7,8-tetrahydro-1,6-naphthyridin-3-yl)-2,6-dimethylmorpholine]
24 | – | – | 76 | 121 | Cc1cc2n(n1)CCCN2c1cnc2c(c1)CN(c1nn3c(C(F)(F)F)nnc3c(C)c1C)CC2 [Compound 320, 6-(7,8-dimethyl-3-(trifluoromethyl)-[1,2,4]triazolo[4,3-b]pyridazin-6-yl)-3-(2-methyl-6,7-dihydropyrazolo[1,5-a]pyrimidin-4(5H)-yl)-5,6,7,8-tetrahydro-1,6-naphthyridine]
25 | – | – | 96 | 3140 | Cc1c(N2CCc3ncc(N4CCO[C@H](c5ccccc5)C4)cc3C2)nn2c(C(F)(F)F)nnc2c1C [Compound 322, (R)-4-(6-(7,8-dimethyl-3-(trifluoromethyl)-[1,2,4]triazolo[4,3-b]pyridazin-6-yl)-5,6,7,8-tetrahydro-1,6-naphthyridin-3-yl)-2-phenylmorpholine]
